Test results published in patent US11135214B2, “Methods for enhancing the bio availability and exposure of a voltage-gated potassium channel opener” (priority 2018, dated 2021).
Values joined by “and” are separate entries in the source; they are usually repeats but may differ in a detail not shown here. Identical values can stand only once. Like-named read-outs stand apart in the source and are kept apart here.

Assay: Food effect study, oral capsule, plasma PK in non-human primate
Format: in vivo, Cynomolgus monkeys
Conditions: plasma; for AUC(0-inf): read-out: AUCinfobs
Procedure: The following study was conducted to determine the effect of food when Compound A is orally administered to a non-human primate.
Three (n=3) Cynomolgus monkeys of Vietnamese origin were used in this study. At the time of initial dose administration, the monkeys weighed 4.7 to 5.1 kg and were about 4.5 years of age.
A certified primate diet (Teklad® Certified Diet 2050C) was fed during the study. For Group 1, the three monkeys were fasted overnight with food returned 4 hours post-dose. For Group 2, the same three monkeys were fasted overnight and offered food about 1 hour prior to dosing and food was returned at 4 hours post-dose. The following Table 1 gives the food consumption for Group 2:
The oral dosage units consisted of about 3 mg/kg of Compound A in a capsule. The capsules were filled the morning of the dose administration and kept at room temperature until dosing. The remaining capsules were placed into the −20° C. storage.
The capsules were placed as far back in the animal's mouth as possible using a pill gun or a modified gavage tube. Approximately 10 mL of water was administered via syringe to ensure complete delivery of the intended dose. Each animal received 1 capsule per dose. The same animals were dosed twice with a 96 hour washout period between doses.
Group 1: All animals were weighed the afternoon prior to dose administration. Animal #2 struggled with dosing. After several attempts, the animal was given a short break and finally dosed successfully.
Group 2: All animals were weighed the morning of dose administration. All animals were dosed without incident.
Whole blood (˜2.0 mL) was collected using syringe and needle from cephalic or saphenous veins and transferred into vacutainer tubes containing K2EDTA and kept on wet ice until processed for plasma. Blood samples were collected at time of dosing (0.0 hours, time zero) and at 0.5, 1, 2, 4, 8, 12, 24 and 48 hours post-dose.
The whole blood samples were placed in a K2EDTA tube and centrifuged at 3200 RPM for 10 minutes at approximately 5° C. Plasma samples were divided into 2 aliquots and each aliquot directly transferred to appropriately labeled, individual tubes containing study number, collection time point, animal ID number, and sample description. One aliquot was placed into storage at −20±5° C. until shipment for analysis. The other aliquot was retained at −20±5° C. Red blood cells were disposed.
All samples were processed per standard protocol for bioanalytical analysis.

[1] = cynomolgus monkey, po, 3 mg/kg, Group 2 (fed), 3 mg/kg capsule, Mean

Q: What does the source list for Cc1cc(N2CCc3cc(F)ccc3C2)cc(C)c1NC(=O)CC(C)(C)C [Compound A, N-[4-(6-fluoro-3,4-dihydro-1H-isoquinolin-2-yl)-2,6-dimethylphenyl]-3,3-dimethylbutanamide]?
A: concentration at 2 h (cynomolgus monkey, oral, 3 mg/kg, Group 2 (fed), 3 mg/kg, 2 h, N=3): 7.73 ng/mL; concentration at 4 h (cynomolgus monkey, oral, 3 mg/kg, Group 2 (fed), 3 mg/kg, 4 h, N=3, read-out: Mean plasma concentration): 44.3 ng/mL; concentration at 8 h (cynomolgus monkey, oral, 3 mg/kg, Group 2 (fed), 3 mg/kg, 8 h, N=3, read-out: Mean plasma concentration): 55.4 ng/mL; concentration at 12 h (cynomolgus monkey, oral, 3 mg/kg, Group 2 (fed), 3 mg/kg, 12 h, N=3, read-out: Mean plasma concentration): 52.8 ng/mL; concentration at 24 h (cynomolgus monkey, oral, 3 mg/kg, Group 2 (fed), 3 mg/kg, 24 h, N=3): 45 ng/mL; concentration at 48 h (cynomolgus monkey, oral, 3 mg/kg, Group 2 (fed), 3 mg/kg, 48 h, N=3): 11.6 ng/mL; concentration at 0 h (cynomolgus monkey, oral, 3 mg/kg, fed, 3 mg/kg capsule, 0 h, individual animals, read-out: Concentration): 0 ng/mL; concentration at 1 h (cynomolgus monkey, oral, 3 mg/kg, fed, 3 mg/kg capsule, 1 h, individual animals, read-out: Concentration): 1.05 ng/mL; concentration at 8 h (cynomolgus monkey, oral, 3 mg/kg, fed, 3 mg/kg capsule, 8 h, individual animals, read-out: Concentration): 50.4 ng/mL; concentration at 12 h (cynomolgus monkey, oral, 3 mg/kg, fed, 3 mg/kg capsule, 12 h, individual animals, read-out: Concentration): 48.8 ng/mL; AUC(0-inf) (cynomolgus monkey, po, 3 mg/kg, Group 1 (fasted), 3 mg/kg capsule, individual subjects): 913 ng·h/mL; AUC(0-t) [1]: 1640 ng·h/mL; AUC(0-inf) [1]: 1180 ng·h/mL; concentration at 0 h (cynomolgus monkey, po, 3 mg/kg, fasted, 3 mg/kg oral, 0 h, individual animals, read-out: Concentration): 0 ng/mL; concentration at 0.5 h (cynomolgus monkey, po, 3 mg/kg, fasted, 3 mg/kg oral, 0.5 h, individual animals, read-out: Concentration): 0 ng/mL; concentration at 4 h (cynomolgus monkey, po, 3 mg/kg, fasted, 3 mg/kg oral, 4 h, individual animals, read-out: Concentration): 12.6 ng/mL; concentration at 8 h (cynomolgus monkey, po, 3 mg/kg, fasted, 3 mg/kg oral, 8 h, individual animals, read-out: Concentration): 38.4 ng/mL; concentration at 12 h (cynomolgus monkey, po, 3 mg/kg, fasted, 3 mg/kg oral, 12 h, individual animals, read-out: Concentration): 38.3 ng/mL; Concentration (fasted, 3 mg/kg oral, 0 h, individual animals): 0 ng/mL; Concentration (fasted, 3 mg/kg oral, 0.5 h, individual animals): 0 ng/mL; Concentration (fasted, 3 mg/kg oral, 1 h, individual animals, 3 mg/kg): 15.6 ng/mL and 5.07 ng/mL and 0 ng/mL; Concentration (fasted, 3 mg/kg oral, 2 h, individual animals, 3 mg/kg): 6.00 ng/mL and 23.5 ng/mL and 16.4 ng/mL; Concentration (fasted, 3 mg/kg oral, 4 h, individual animals, 3 mg/kg): 19.2 ng/mL and 18.1 ng/mL; Concentration (fasted, 3 mg/kg oral, 8 h, individual animals, 3 mg/kg): 63.1 ng/mL and 48.1 ng/mL; Concentration (fasted, 3 mg/kg oral, 12 h, individual animals, 3 mg/kg): 75.1 ng/mL and 53.7 ng/mL; Concentration (fasted, 3 mg/kg oral, 24 h, individual animals, 3 mg/kg): 22.5 ng/mL and 53.2 ng/mL and 51.8 ng/mL; Concentration (fasted, 3 mg/kg oral, 48 h, individual animals, 3 mg/kg): 3.13 ng/mL and 12.5 ng/mL and 11.2 ng/mL; Concentration (fed, 3 mg/kg capsule, 0 h, individual animals): 0 ng/mL; Concentration (fed, 3 mg/kg capsule, 0.5 h, individual animals, 3 mg/kg): 1.05 ng/mL and 0 ng/mL (2×); Concentration (fed, 3 mg/kg capsule, 1 h, individual animals, 3 mg/kg): 1.21 ng/mL and 1.48 ng/mL; Concentration (fed, 3 mg/kg capsule, 2 h, individual animals, 3 mg/kg): 11.8 ng/mL and 0 ng/mL and 11.4 ng/mL; Concentration (fed, 3 mg/kg capsule, 4 h, individual animals, 3 mg/kg): 34.8 ng/mL and 19.9 ng/mL and 78.2 ng/mL; Concentration (fed, 3 mg/kg capsule, 8 h, individual animals, 3 mg/kg): 52.2 ng/mL and 63.7 ng/mL; Concentration (fed, 3 mg/kg capsule, 12 h, individual animals, 3 mg/kg): 67.5 ng/mL and 42.2 ng/mL; Concentration (fed, 3 mg/kg capsule, 24 h, individual animals, 3 mg/kg): 24.2 ng/mL and 61.9 ng/mL and 48.8 ng/mL; Concentration (fed, 3 mg/kg capsule, 48 h, individual animals, 3 mg/kg): 4.26 ng/mL and 16.9 ng/mL and 13.5 ng/mL
